{"source": "patent US9321772B2", "about": "“Substituted pyrazolo[3,4-D]pyrimidines and uses thereof” (The Regents of the University of California, priority 2011, dated 2016)", "target": "T1, RET fusion protein CCDC6-RET (Homo sapiens, UniProt P07949)", "T1 construct": "endogenous in cells; host or cells: TPC1 thyroid cancer cells; the other entry of the earlier key: CCDC6 (Q16204, Coiled-coil domain-containing protein 6)", "T1 sequence (P07949 with tags, fused parts or gaps)": "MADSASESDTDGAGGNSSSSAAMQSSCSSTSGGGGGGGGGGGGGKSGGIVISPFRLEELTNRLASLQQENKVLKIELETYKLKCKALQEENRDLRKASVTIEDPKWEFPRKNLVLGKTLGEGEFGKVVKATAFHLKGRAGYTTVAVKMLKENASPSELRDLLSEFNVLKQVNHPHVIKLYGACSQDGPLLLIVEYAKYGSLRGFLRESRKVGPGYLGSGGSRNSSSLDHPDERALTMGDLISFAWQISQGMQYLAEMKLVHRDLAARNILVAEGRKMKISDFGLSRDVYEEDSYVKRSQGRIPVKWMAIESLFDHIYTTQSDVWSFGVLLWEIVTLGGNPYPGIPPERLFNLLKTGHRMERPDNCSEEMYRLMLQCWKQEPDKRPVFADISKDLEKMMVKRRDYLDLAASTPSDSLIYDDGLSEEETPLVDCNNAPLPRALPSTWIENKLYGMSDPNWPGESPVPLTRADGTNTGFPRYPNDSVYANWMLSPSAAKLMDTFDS", "assay": "RET fusion dephosphorylation in TPC1 whole cell lysates", "type": "cell-based", "method": "FIG. 24. Whole cell lysates of TPC1 cells were extracted after treatment with AD80 at indicated concentrations and given time points. TPC1 cells were grown in 6 cm dishes at 70-80% confluence in growth media supplemented with 10% FBS. AD80 treatment leads to dephosphorylation of the RET fusion protein at low nanomolar concentrations <10 nM. The inhibition of RET results in dephosphorylation of downstream signaling (PI3K, MAPK)."}
{"smiles": "CC(C)n1nc(-c2ccc(NC(=O)Nc3cc(C(F)(F)F)ccc3F)cc2)c2c(N)ncnc21", "note": "[AD80]", "values": [{"measurement": "concentration leading to dephosphorylation of the RET fusion protein", "result": "< 10", "unit": "nM"}]}
